Assay: Oxygen radical absorbance capacity (ORAC) assay
Method: Peroxyl radical scavenging capacity of the EC2S2 was determined using oxygen radical absorbance capacity (ORAC) assay (Huang, D.; Ou, B.; Hampsch-Woodill, M.; Flanagan, J. A.; Prior, R. L. High-throughput assay of oxygen radical absorbance capacity (ORAC) using a multichannel liquid handling system coupled with a microplate fluorescence reader in 96-well format. Journal of Agricultural and Food Chemistry (2002), 50(16), 4437-4444.). […] The net area under the curve has excellent linear relationship with the concentration of EC2S2. The ORAC value calculated from the individual concentration is 10.79±0.58 μmol TE/μmol sample. This is the highest ORAC value reported for pure antioxidant compounds.

Oc1cc(O)c2c(c1)O[C@H](c1ccc(O)c(O)c1)[C@H](O)[C@H]2SCCS[C@H]1c2c(O)cc(O)cc2O[C@H](c2ccc(O)c(O)c2)[C@@H]1O [EC2S2, (2R,2′R,3S,3′S,4S,4′S)-4,4′-(ethane-1,2-diylbis(sulfanediyl))bis(2-(3,4-dihydroxyphenyl)chroman-3,5,7-triol)]
antioxidant activity relative to EC (EC2S2 synthesized from Pine Bark OPCs, compared with EC): two times higher than EC
ORAC value (peroxyl radical scavenging capacity) (calculated from the individual concentration, Trolox standard): 10.79±0.58 μmol TE/μmol sample
